Read-outs that look alike come from different tables or passages of the source.
What was measured:
[1] = system: Key Broadleaf Weed and Crop Species; test: Post-emergent Test II herbicidal activity (Table 5); assay type: in vivo; conditions: post-emergence, 336 h, post-emergent, 14 days after application; for pest or weed control at 70 g/ha: 70 g ai/ha; for pest or weed control at 140 g/ha: 140 g ai/ha
Method in brief: (§1)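 Injury was rated visually 14 d after treatment on a 0–100% scale against untreated controls. Test compounds, formulated with crop oil concentrate and surfactant and serially diluted down to 1/16× of the top rate, were applied by track sprayer at 187 L/ha onto first- to second-true-leaf seedlings.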

[2] = system: Key Grass and Sedge Weeds as well as Grass Crops; test: Post-emergent Test II herbicidal activity (Table 6); assay type: in vivo; conditions: post-emergence, 336 h; for pest or weed control at 70 g/ha: application rate 70 g ai/ha; for pest or weed control at 140 g/ha: application rate 140 g ai/ha
Method in brief: as §1

[3] = ABUTH: velvetleaf (Abutilon theophrasti), read-out: Visual Growth Reduction (%) 14 Days After Application ABUTH
[4] = AMARE: redroot pigweed (Amaranthus retroflexus), read-out: Visual Growth Reduction (%) 14 Days After Application AMARE
[5] = BRSNN: oilseed-rape, canola (Brassica napus), read-out: Visual Growth Reduction (%) 14 Days After Application BRSNN
[6] = CHEAL: lambsquarters (Chenopodium album), read-out: Visual Growth Reduction (%) 14 Days After Application CHEAL
[7] = EPHHL: wild poinsettia (Euphorbia heterophylla), read-out: Visual Growth Reduction (%) 14 Days After Application EPHHL
[8] = HELAN: sunflower (Helianthus annuus), read-out: Visual Growth Reduction (%) 14 Days After Application HELAN
[9] = VIOTR: wild pansy (Viola tricolor), read-out: Visual Growth Reduction (%) 14 Days After Application VIOTR
[10] = Triticum aestivum, TRZSS (wheat), read-out: Visual Growth Reduction (%) 14 Days After Application, TRZSS
[11] = CYPES: yellow nutsedge (Cyperus esculentus), read-out: Visual Growth Reduction (%) 14 Days After Application, CYPES
[12] = DIGSA: crabgrass (Digitaria sanguinalis), read-out: Visual Growth Reduction (%) 14 Days After Application, DIGSA
[13] = ECHCG: barnyardgrass (Echinochloa crus-galli), read-out: Visual Growth Reduction (%) 14 Days After Application, ECHCG
[14] = ORYSA: rice (Oryza sativa), read-out: Visual Growth Reduction (%) 14 Days After Application, ORYSA
[15] = SETFA: giant foxtail (Setaria faberi), read-out: Visual Growth Reduction (%) 14 Days After Application, SETFA
[16] = SORVU: grain sorghum (Sorghum vulgare), read-out: Visual Growth Reduction (%) 14 Days After Application, SORVU
[17] = ZEAMX: maize, corn (Zea mays), read-out: Visual Growth Reduction (%) 14 Days After Application, ZEAMX

## Nc1cc(-c2cc(F)c(I)cc2F)nc(C(=O)O)c1Cl [Compound 131]
[1]; [3]
  pest or weed control at 70 g/ha: 95 to 100%
  pest or weed control at 140 g/ha: 95 to 100%
[1]; [4]
  pest or weed control at 70 g/ha: 95 to 100%
  pest or weed control at 140 g/ha: 95 to 100%
[1]; [5]
  pest or weed control at 70 g/ha: 95 to 100%
  pest or weed control at 140 g/ha: 95 to 100%
[1]; [6]
  pest or weed control at 70 g/ha: 95 to 100%
  pest or weed control at 140 g/ha: 95 to 100%
[1]; [7]
  pest or weed control at 70 g/ha: 95 to 100%
  pest or weed control at 140 g/ha: 95 to 100%
[1]; [8]
  pest or weed control at 70 g/ha: 85 to 94%
  pest or weed control at 140 g/ha: 95 to 100%
[1]; [9]
  pest or weed control at 70 g/ha: 95 to 100%
  pest or weed control at 140 g/ha: 95 to 100%
[2]; [10]
  pest or weed control at 70 g/ha: 60 to 74%
  pest or weed control at 140 g/ha: 75 to 84%
[2]; [11]
  pest or weed control at 70 g/ha: 85 to 94%
  pest or weed control at 140 g/ha: 85 to 94%
[2]; [12]
  pest or weed control at 70 g/ha: 75 to 84%
  pest or weed control at 140 g/ha: 75 to 84%
[2]; [13]
  pest or weed control at 70 g/ha: 95 to 100%
  pest or weed control at 140 g/ha: 95 to 100%
[2]; [14]
  pest or weed control at 70 g/ha: 0 to 29%
  pest or weed control at 140 g/ha: 30 to 44%
[2]; [15]
  pest or weed control at 70 g/ha: 95 to 100%
  pest or weed control at 140 g/ha: 95 to 100%
[2]; [16]
  pest or weed control at 70 g/ha: 60 to 74%
  pest or weed control at 140 g/ha: 75 to 84%
[2]; [17]
  pest or weed control at 70 g/ha: 85 to 94%
  pest or weed control at 140 g/ha: 85 to 94%
